Reference: patent publication US20210070747A1, “2(1H)-QUINOLINONE DERIVATIVE” (priority 2017, published 2021)
pIC50: −log10 of the molar value. In brackets after ≈: the same amount, converted by molar mass. Where two headings read alike, the source gives them in different places.

Assays:
E. coli DNA gyrase = molecular target: T1, E. coli DNA gyrase (Escherichia coli, UniProt P0AES6); assay: Test for evaluating the activity of inhibiting E. coli DNA gyrase enzyme (Method 2, supercoiling, recombinant gyrA/gyrB complex); type: biochemical
T1 construct: made in house; host or cells: E. coli BL21 (DE3)
Method: The enzymatic activity of E. coli DNA gyrase was measured by a method comprising reacting DNA gyrase and its substrate, relaxed pBR322 (Inspiralis), in the presence of ATP and detecting the post-reaction supercoiled pBR322/relaxed pBR322 ratio with H19.
Specifically, to 1 ng/μL of relaxed pBR322, E. coli DNA gyrase enzyme (the gyrA or gyrB gene was incorporated into the pET15b plasmid and after expressing them in E. coli BL21 (DE3), purification was performed using a Ni-NTA column to form a complex at room temperature) was added at a final concentration of 0.135 nmol/mL and the mixture was incubated for 60 minutes at room temperature. This reaction was carried out in 20 mmol/L tris-HCl buffered solution (pH 8.0) comprising 0.5 mmol/L ATP, 0.005% bridge 35, 35 mmol/L ammonium acetate, 8 mmol/L magnesium chloride, 4.6% glycerol, and 1 mmol/L dithiothreitol. To the reaction mixture, H19 was added to bring the reaction to an end; thereafter, the supercoiled pBR322/relaxed pBR322 ratio was detected at excitation wavelength/emission wavelength=485 nm/535 nm. An inhibition curve was obtained by allowing the analyte compound to be present at varying concentrations during the reaction described above.

E. Coli ATCC 25922 = assay: Test for evaluating antibacterial activity (E. coli), broth microdilution MIC; type: cell-based; details: Escherichia coli, ATCC25922; 35° C., 18 hours, cation-adjusted Mueller-Hinton medium
Method: Minimum inhibitory concentration (MIC) was measured using the broth microdilution method described below in accordance with a modification of the standard method specified by CLSI (Clinical & Laboratory Standards Institute).
Bacterial cells under test were cultured overnight on a heart infusion agar medium, scraped off and suspended at a concentration equivalent to McFarland 0.5 turbidity; the suspension thus obtained was diluted 10 folds to give a liquid inoculum. The inoculum (0.005 mL) was inoculated on a cation-adjusted Mueller-Hinton medium containing the analyte compound and cultured at 35° C. for 18 hours. A minimum drug concentration at which no bacterial growth was macroscopically visible was designated MIC.

[1] = Method 2, read-out: E. Coli Gyrase supercoiling IC50

| SMILES | pIC50 (E. coli DNA gyrase; [1]) | MIC (E. Coli ATCC 25922) | pIC50 (E. coli DNA gyrase) | inhibition at 10 µM (E. coli DNA gyrase; Method 2, at 10000 nM) |
| --- | --- | --- | --- | --- |
| CNc1cccc2cc(C(=O)Nc3cnc(NCCN4CCN(C)CC4)nc3)c(=O)[nH]c12 [Example 34, 8-(methylamino)-N-(2-{[2-(4-methylpiperazine-1-yl)ethyl]amino}pyrimidine-5-yl)-2-oxo-1,2-dihydroquinoline-3-carboxamide] | 7.63 | > 64 µg/mL | – | – |
| CNc1cccc2cc(C(=O)Nc3cnc(NCc4csc(N)n4)nc3)c(=O)[nH]c12 [Example 35, N-(2-[[(2-Amino-1,3-thiazol-4-yl)methyl]amino]pyrimidin-5-yl)-8-(methylamino)-2-oxo-1,2-dihydroquinoline-3-carboxamide] | 8.83 | > 4 µg/mL | – | – |
| CNc1cccc2cc(C(=O)NCCc3noc(=O)[nH]3)c(=O)[nH]c12 [Example 36, 8-(methylamino)-2-oxo-N-[2-(5-oxo-4,5-dihydro-1,2,4-oxadiazole-3-y1)ethyl]-1,2-dihydroquinoline-3-carboxamide] | 7.14 | > 32 µg/mL | – | – |
| CNc1cccc2cc(C(=O)Nc3ccc(C(=O)NC(CO)CO)cc3)c(=O)[nH]c12 [Example 38, N-{4-[(1,3-dihydroxypropane-2-yl)carbamoyl]phenyl}-8-(methylamino)-2-oxo-1,2-dihydroquinoline-3-carboxamide] | 5.33 | – | – | – |
| CNc1cccc2cc(C(=O)Nc3cnc(N4CCC(N)(C(=O)O)CC4)nc3)c(=O)[nH]c12.Cl [Example 39, 4-Amino-1-(5-[[8-(methylamino)-2-oxo-1,2-dihydroquinoline-3-carbonyl]amino]pyrimidin-2-yl)piperidine-4-carboxylic acid-hydrochloride] | – | > 8 µg/mL | 7.31 | – |
| CNc1cccc2cc(C(=O)Nc3cnc(NCCCN(CCO)CCO)nc3)c(=O)[nH]c12 [Example 41, N-[2-({3-[bis(2-hydroxyethyl)amino]propyl}amino)pyrimidine-5-yl]-8-(methylamino)-2-oxo-1,2-dihydroquinoline-3-carboxamide] | 6.83 | > 64 µg/mL | – | – |
| CNc1cc(F)cc2cc(C(=O)N(C)c3cncnc3)c(=O)[nH]c12 [Example 61, 6-fluoro-N-methyl-8-(methylamino)-2-oxo-N-(pyrimidine-5-yl)-1,2-dihydroquinoline-3-carboxamide] | 6.48 | – | – | – |
| CNc1cc(F)cc2cc(C(=O)Nc3cnc(C(=O)NCCCN4CCOCC4)nc3)c(=O)[nH]c12 [Example 82, 6-fluoro-8-(methylamino)-N-(2-{[3-(morpholine-4-yl)propyl]carbamoyl}pyrimidine-5-yl)-2-oxo-1,2-dihydroquinoline-3-carboxamide] | 9.33 | 0.25 µg/mL (≈ 0.517 µM) | – | – |
| CNc1cc(F)cc2cc(C(=O)Nc3ccc(C(=O)NCCN4CCOCC4)cc3CN(C)C3CCN(C)CC3)c(=O)[nH]c12 [Example 84, 6-fluoro-8-(methylamino)-N-(2-{[methyl(1-methylpiperidine-4-yl)amino]methyl}-4-{[2-(morpholine-4-yl)ethyl]carbamoyl}phenyl)-2-oxo-1,2-dihydroquinoline-3-carboxamide] | 7.94 | > 32 µg/mL | – | – |
| CNc1cc(F)cc2cc(C(=O)Nc3ccc(C(=O)NCCN4CCOCC4)cc3C)c(=O)[nH]c12 [Example 86, 6-fluoro-8-(methylamino)-N-(2-methyl-4-{[2-(morpholine-4-yl)ethyl]carbamoyl}phenyl)-2-oxo-1,2-dihydroquinoline-3-carboxamide] | 7.46 | > 4 µg/mL | – | – |
| CNc1cc(F)cc2cc(C(=O)Nc3nccn3C)c(=O)[nH]c12 [Example 87, 6-fluoro-8-(methylamino)-N-(1-methyl-1H-imidazole-2-yl)-2-oxo-1,2-dihydroquinoline-3-carboxamide] | 5.98 | – | – | – |
| CNc1cc(F)cc2cc(C(=O)Nc3ccn(C)n3)c(=O)[nH]c12 [Example 88, 6-fluoro-8-(methylamino)-N-(1-methyl-1H-pyrazole-3-yl)-2-oxo-1,2-dihydroquinoline-3-carboxamide] | – | – | – | 41% |
| CNc1cc(F)cc2cc(C(=O)Nc3ccnn3C)c(=O)[nH]c12 [Example 89, 6-fluoro-8-(methylamino)-N-(1-methyl-1H-pyrazole-5-yl)-2-oxo-1,2-dihydroquinoline-3-carboxamide] | 7.52 | > 8 µg/mL | – | – |
| CNc1cc(F)cc2cc(C(=O)Nc3cnc(C(=O)NCCN4CCCCC4)nc3)c(=O)[nH]c12.O=CO [Example 90, 6-fluoro-8-(methylamino)-2-oxo-N-(2-{[2-(piperidine-1-yl)ethyl]carbamoyl}pyrimidine-5-yl)-1,2-dihydroquinoline-3-carboxamide-formate] | – | > 16 µg/mL | 8.61 | – |
| CNc1cc(F)cc2cc(C(=O)Nc3ccc(C(=O)NO)cc3)c(=O)[nH]c12 [Example 92, 6-Fluoro-N-[4-(hydroxycarbamoyl)phenyl]-8-(methylamino)-2-oxo-1,2-dihydroquinoline-3-carboxamide] | 8.59 | > 4 µg/mL | – | – |
| CCc1cc(C(=O)NCCN2CCOCC2)ccc1NC(=O)c1cc2cc(F)cc(NC)c2[nH]c1=O [Example 94, N-(2-ethyl-4-{[2-(morpholine-4-yl)ethyl]carbamoyl}phenyl)-6-fluoro-8-(methylamino)-2-oxo-1,2-dihydroquinoline-3-carboxamide] | 6.88 | > 2 µg/mL | – | – |
| CNc1cc(F)cc2cc(C(=O)Nc3ccc(C(=O)O)cc3CN(C)C3CC3)c(=O)[nH]c12 [Example 97, 3-{[cyclopropyl (methyl)amino]methyl}-4-{[6-fluoro-8-(methylamino)-2-oxo-1,2-dihydroquinoline-3-carbonyl]amino} benzoic acid] | – | > 8 µg/mL | 9.22 | – |
| CCCCCN(CCCCC)Cc1cc(C(=O)O)ccc1NC(=O)c1cc2cc(F)cc(NC)c2[nH]c1=O [Example 101, 3-[(dipentylamino)methyl]-4-{[6-fluoro-8-(methylamino)-2-oxo-1,2-dihydroquinoline-3-carbonyl]amino} benzoic acid] | 9.10 | – | – | – |
| CNc1cc(F)cc2cc(C(=O)Nc3ccc(C(=O)O)cc3CCC3CCCCC3)c(=O)[nH]c12 [Example 102, 3-(2-cyclohexylethyl)-4-{[6-fluoro-8-(methylamino)-2-oxo-1,2-dihydroquinoline-3-carbonyl]amino} benzoic acid] | – | – | 6.64 | – |
| CNc1cc(F)cc2cc(C(=O)Nc3ccc(C(=O)O)cc3CN(CCCN(C)C)CCCN(C)C)c(=O)[nH]c12 [Example 105, 3-({bis[3-(dimethylamino)propyl]amino}methyl)-4-{[6-fluoro-8-(methylamino)-2-oxo-1,2-dihydroquinoline-3-carbonyl]amino} benzoic acid] | 7.53 | > 32 µg/mL | – | – |
| CNc1cc(F)cc2cc(C(=O)Nc3ccc(C(=O)O)cc3CN3CCCC(N)C3)c(=O)[nH]c12.Cl (stereo not drawn) [Example 109, 3-[(3-Aminopiperidin-1-yl)methyl]-4-[[6-fluoro-8-(methylamino)-2-oxo-1,2-dihydroquinoline-3-carbonyl]amino]benzoic acid-hydrochloride] | – | > 32 µg/mL | 7.82 | – |
| CNc1cc(F)cc2cc(C(=O)Nc3ccc(C(=O)O)cc3CCN(C)C3CCCCC3)c(=O)[nH]c12 [Example 111, 3-{2-[cyclohexyl (methyl)amino]ethyl}-4-{[6-fluoro-8-(methylamino)-2-oxo-1,2-dihydroquinoline-3-carbonyl]amino} benzoic acid] | 8.53 | > 32 µg/mL | – | – |
| CCCCCN(CCCCC)Cc1cc(C(=O)O)ccc1NC(=O)c1cc2cncc(NC)c2[nH]c1=O [Example 112, 3-[(dipentylamino)methyl]-4-{[8-(methylamino)-2-oxo-1,2-dihydro-1,6-naphthyridine-3-carbonyl]amino}benzoic acid] | 8.38 | > 64 µg/mL | – | – |
| CNc1cc(F)cc2cc(C(=O)Nc3ccc(C(=O)O)cc3CNC3CCCCC3)c(=O)[nH]c12.O=C(O)C(F)(F)F [Example 113, 3-[(cyclohexylamino)methyl]-4-{[6-fluoro-8-(methylamino)-2-oxo-1,2-dihydroquinoline-3-carbonyl]amino}benzoic acid-trifluoroacetate] | – | 32 µg/mL | 9.59 | – |
| CNc1cc(F)cc2cc(C(=O)Nc3ccc(C(=O)O)cc3N(C)C3CCCCC3)c(=O)[nH]c12 [Example 114, 3-[Cyclohexyl(methyl)amino]-4-[[6-fluoro-8-(methylamino)-2-oxo-1,2-dihydroquinoline-3-carbonyl]amino]benzoic Acid] | 6.47 | > 32 µg/mL | – | – |
| CNc1cc(F)cc2cc(C(=O)Nc3ccc(CO)cc3CN(CCO)C3CCCCC3)c(=O)[nH]c12 [Example 124, N-[2-{[cyclohexyl(2-hydroxyethyl)amino]methyl}-4-(hydroxymethyl)phenyl]-6-fluoro-8-(methylamino)-2-oxo-1,2-dihydroquinoline-3-carboxamide] | 8.80 | – | – | – |
